ChEMBL document CHEMBL4834488, “Improved Synthesis of New FDA-Approved Treatment for KRAS G12C Mutation in Non-small Cell Lung Cancer” (ACS Med Chem Lett, 2021)

Experiment: AUC in non-small-cell lung cancer/colorectal cancer patient serum at 960 mg, po
Format: ADME, cell-free
Parameters: dose 960 mg
Conditions: human

In the case of C=CC(=O)N1CCN(c2nc(=O)n(-c3c(C)ccnc3C(C)C)c3nc(-c4c(O)cccc4F)c(F)cc23)[C@@H](C)C1 [SOTORASIB], the AUC is reported as 65300 ng·h/mL.
